Assay results: patent publication US9422246B2, “Benzylidene azolidine derivative or salt thereof” (ROHTO Pharmaceutical Co., Ltd., priority 2012, dated 2016)

Tests used:
[1] = Evaluation of hydrophilicity (solubility in test solvent); assay type: physicochemical; conditions: 25° C.; test solvent 10% by weight dipropylene glycol, 10% ethanol, 80% purified water
Experimental: Test solvent: A mixed solvent containing 10% by weight of dipropylene glycol, 10% by weight of ethanol, and 80% by weight of purified water (based on 100% by weight of the total amount of dipropylene glycol, ethanol, and purified water).
Based on the difference in solubility, the hydrophilicity was evaluated as follows.
Particularly high hydrophilicity: A solubility of 1.0 or more (g/100 g test solvent)
High hydrophilicity: A solubility of 0.2 to less than 1.0 (g/100 g test solvent)
Low hydrophilicity: A solubility of 0.1 to less than 0.2 (g/100 g test solvent)
No hydrophilicity: A solubility of less than 0.1 (g/100 g test solvent) or the occurrence of suspended solids

[2] = UV absorbing properties (UV spectrum in ethanol); assay type: physicochemical; conditions: 5 ppm in ethanol, quartz cell 1 cm optical path length
Experimental: The resulting compound 1 was dissolved at a concentration of 5 ppm in ethanol as a solvent to form a sample solution. After the prepared sample solution was injected into a quartz cell (1 cm in optical path length), the UV spectrum of the sample was measured with a spectrophotometer (UV-2450 manufactured by SHIMADZU CORPORATION), in which the maximal absorption wavelength (λmax) and the absorbance at the maximal absorption wavelength were determined. When the maximal absorption wavelength falls within the ultraviolet wavelength range, the higher absorbance at the maximal absorption wavelength indicates the better UV absorbing properties.

Solubility [1] | Absorbance at maximal absorption wavelength [2] | Maximal absorption wavelength (λmax) [2] [nm] | SMILES
<0.05 g/100 g test solvent |  |  | CCCCC(CC)COC(=O)CCN1C(=O)NC(=Cc2ccc(OC)c(OC)c2)C1=O (stereo not shown) [1′, 2-ethylhexyl dimethoxybenzylidene dioxoimidazolidine propionate, reference compound]
2.0 g/100 g test solvent | 0.43 | 335 | O=C1NC(=Cc2ccc(OCCOCCO)cc2)C(=O)N1CCOCCO [Compound 1, 5-[4-[2-(2-hydroxyethoxyl)ethoxy]benzylidene]-3-[2-(2-hydroxyethoxyl)ethyl]hydantoin]
1.5 g/100 g test solvent | 0.34 | 338 | O=C(CCN1C(=O)NC(=Cc2ccc(OCCOCCO)cc2)C1=O)N(CCO)CCO [Compound 4, 5-[4-[2-(2-hydroxyethoxyl)ethoxy]benzylidene]-3-[3-[bis(2-hydroxyethyl)amino]-3-oxopropyl]hydantoin]

The next lines start with the compound.

SMILES | Solubility [1] | Absorbance at maximal absorption wavelength [2] | Maximal absorption wavelength (λmax) [2] [nm]
O=C1C(=Cc2ccc(OCCOCCOCCO)cc2)N(CCOCCOCCO)C(=O)N1CCOCCOCCO [Compound 2, 5-[4-[2-[2-(2-hydroxyethoxyl)ethoxy]ethoxy]benzylidene]-1,3-bis[2-[2-(2-hydroxyethoxyl)ethoxy]ethyl]hydantoin] | 25< g/100 g test solvent | 0.12 | 325
O=C(COc1ccc(C=C2NC(=O)N(CC(=O)N(CCO)CCO)C2=O)cc1)N(CCO)CCO [Compound 3, 5-[4-[2-[bis(2-hydroxyethyl)amino]-2-oxoethoxy]benzylidene]-3-[2-[bis(2-hydroxyethyl)amino]-2-oxoethyl]hydantoin] | 1.2 g/100 g test solvent | 0.30 | 336
O=C(COc1ccc(C=C2NC(=O)N(CC(=O)OCCOCCO)C2=O)cc1)OCCOCCO [Compound 5, 5-[4-[2-[2-(2-hydroxyethoxyl)ethoxy]-2-oxoethoxy]benzylidene]-3-[2-[2-(2-hydroxyethoxyl)ethoxy]-2-oxoethyl]hydantoin] | 0.2 g/100 g test solvent | 0.20 | 335
COc1ccc(C=C2C(=O)N(CC(=O)N(CCO)CCO)C(=O)N2CC(=O)N(CCO)CCO)cc1 [Compound 6, 5-(4-methoxybenzylidene]-1,3-bis[2-[bis(2-hydroxyethyl)amino]-2-oxoethyl]hydantoin] | 25< g/100 g test solvent | 0.18 | 328
COc1ccc(C=C2C(=O)N(CC(=O)OCCOCCO)C(=O)N2CC(=O)OCCOCCO)cc1 [Compound 7, 5-(4-methoxybenzylidene)-1,3-bis[2-[2-(2-hydroxyethoxy)ethoxy]-2-oxoethyl]hydantoin] | 25< g/100 g test solvent | 0.14 | 326
